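Assay format: 96-well plates, 48-hour exposure. GI50: concentration for 50% inhibition of growth. TGI denotes the concentration required for complete inhibition of growth.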
Experiments:
Assay in all cases: NCI-60 cell line screen, 48 h
786-0 renal = system: 786-0 renal
A498 renal = system: A498 renal
A549 NSCLC = system: A549 NSCLC
ACHN renal = system: ACHN renal
BT-549 breast = system: BT-549 breast
CAKI-1 renal = system: CAKI-1 renal
CCRF-CEM leukemia = system: CCRF-CEM leukemia
COLO 205 colon = system: COLO 205 colon
DU-145 prostate = system: DU-145 prostate
HCC-2998 colon = system: HCC-2998 colon
HCT-116 colon = system: HCT-116 colon
HCT-15 colon = system: HCT-15 colon
HL-60(TB) leukemia = system: HL-60(TB) leukemia
HOP-62 NSCLC = system: HOP-62 NSCLC
HOP-92 NSCLC = system: HOP-92 NSCLC
HS 578T breast = system: HS 578T breast
HT29 colon = system: HT29 colon
IGROV1 ovarian = system: IGROV1 ovarian
K-562 leukemia = system: K-562 leukemia
KM12 colon = system: KM12 colon
LOX IMVI melanoma = system: LOX IMVI melanoma
M14 melanoma = system: M14 melanoma
MALME-3M melanoma = system: MALME-3M melanoma
MCF7 breast = system: MCF7 breast
MDA-MB-231 breast = system: MDA-MB-231 breast
MDA-MB-435 = system: MDA-MB-435
MOLT-4 leukemia = system: MOLT-4 leukemia
NCI-H226 lung = system: NCI-H226 lung
NCI-H23 lung = system: NCI-H23 lung
NCI-H460 lung = system: NCI-H460 lung
NCI-H522 lung = system: NCI-H522 lung
NCI/ADR-RES ovarian = system: NCI/ADR-RES ovarian
OVCAR-3 ovarian = system: OVCAR-3 ovarian
OVCAR-4 ovarian = system: OVCAR-4 ovarian
OVCAR-5 ovarian = system: OVCAR-5 ovarian
OVCAR-8 ovarian = system: OVCAR-8 ovarian
PC-3 prostate = system: PC-3 prostate
RPMI-8226 leukemia = system: RPMI-8226 leukemia
RXF 393 renal = system: RXF 393 renal
SF-268 CNS = system: SF-268 CNS
SF-295 CNS = system: SF-295 CNS
SF-539 CNS = system: SF-539 CNS
SK-MEL-2 melanoma = system: SK-MEL-2 melanoma
SK-MEL-28 melanoma = system: SK-MEL-28 melanoma
SK-MEL-5 melanoma = system: SK-MEL-5 melanoma
SK-OV-3 ovarian = system: SK-OV-3 ovarian
SN12C renal = system: SN12C renal
SNB-19 CNS = system: SNB-19 CNS
SNB-75 CNS = system: SNB-75 CNS
SR leukemia = system: SR leukemia
SW-620 colon = system: SW-620 colon
T-47D breast = system: T-47D breast
TK-10 renal = system: TK-10 renal
U251 CNS = system: U251 CNS
UACC-257 melanoma = system: UACC-257 melanoma
UACC-62 melanoma = system: UACC-62 melanoma
UO-31 renal = system: UO-31 renal

## COc1ccc2c(c1)O/C(=C\c1ccc([N+](=O)[O-])o1)C2=O
786-0 renal
  GI50: 1990 nM
  TGI: 4830 nM
A498 renal
  GI50: 1740 nM
  TGI: 4540 nM
A549 NSCLC
  GI50: 2430 nM
  TGI: 8040 nM
ACHN renal
  GI50: 625 nM
  TGI: 2690 nM
BT-549 breast
  GI50: 1560 nM
  TGI: 3070 nM
CAKI-1 renal
  GI50: 452 nM
  TGI: 2120 nM
CCRF-CEM leukemia
  GI50: 340 nM
  TGI: 1700 nM
COLO 205 colon
  GI50: 1180 nM
  TGI: 3120 nM
DU-145 prostate
  GI50: 775 nM
  TGI: 7940 nM
HCC-2998 colon
  GI50: 1810 nM
  TGI: 3640 nM
HCT-116 colon
  GI50: 246 nM
  TGI: 747 nM
HCT-15 colon
  GI50: 271 nM
  TGI: 1260 nM
HL-60(TB) leukemia
  GI50: 1800 nM
  TGI: 5690 nM
HOP-62 NSCLC
  GI50: 2050 nM
  TGI: 6560 nM
HOP-92 NSCLC
  GI50: 1950 nM
  TGI: 5620 nM
HS 578T breast
  GI50: 2360 nM
  TGI: 7320 nM
HT29 colon
  GI50: 452 nM
  TGI: 1920 nM
IGROV1 ovarian
  GI50: 1350 nM
  TGI: 7300 nM
K-562 leukemia
  GI50: 352 nM
  TGI: 1910 nM
KM12 colon
  GI50: 1370 nM
  TGI: 3420 nM
LOX IMVI melanoma
  GI50: 1140 nM
  TGI: 2960 nM
M14 melanoma
  GI50: 1640 nM
  TGI: 3740 nM
MALME-3M melanoma
  GI50: 2450 nM
  TGI: 5770 nM
MCF7 breast
  GI50: 345 nM
  TGI: 3120 nM
MDA-MB-231 breast
  GI50: 2030 nM
  TGI: 6630 nM
MDA-MB-435
  GI50: 1610 nM
  TGI: 3490 nM
MOLT-4 leukemia
  GI50: 2130 nM
  TGI: 8260 nM
NCI-H226 lung
  GI50: 3440 nM
  TGI: 23600 nM
NCI-H23 lung
  GI50: 1990 nM
  TGI: 5810 nM
NCI-H460 lung
  GI50: 598 nM
  TGI: 3890 nM
NCI-H522 lung
  GI50: 1250 nM
  TGI: 2570 nM
NCI/ADR-RES ovarian
  GI50: 2740 nM
  TGI: > 30100 nM
OVCAR-3 ovarian
  GI50: 1190 nM
  TGI: 2530 nM
OVCAR-4 ovarian
  GI50: 1870 nM
  TGI: 6500 nM
OVCAR-5 ovarian
  GI50: 2270 nM
  TGI: 5780 nM
OVCAR-8 ovarian
  GI50: 1410 nM
  TGI: 7460 nM
PC-3 prostate
  GI50: 2140 nM
  TGI: > 25500 nM
RPMI-8226 leukemia
  GI50: 367 nM
  TGI: 2330 nM
RXF 393 renal
  GI50: 1470 nM
  TGI: 2990 nM
SF-268 CNS
  GI50: 2000 nM
  TGI: 16800 nM
SF-295 CNS
  GI50: 2470 nM
  TGI: 11600 nM
SF-539 CNS
  GI50: 1600 nM
  TGI: 4140 nM
SK-MEL-2 melanoma
  GI50: 2130 nM
  TGI: 4010 nM
SK-MEL-28 melanoma
  GI50: 2170 nM
  TGI: 5020 nM
SK-MEL-5 melanoma
  GI50: 1560 nM
  TGI: 3080 nM
SK-OV-3 ovarian
  GI50: 4750 nM
  TGI: 59000 nM
SN12C renal
  GI50: 2450 nM
  TGI: > 100000 nM
SNB-19 CNS
  GI50: 3090 nM
  TGI: > 100000 nM
SNB-75 CNS
  GI50: 2240 nM
  TGI: 8260 nM
SR leukemia
  GI50: 178 nM
  TGI: 964 nM
SW-620 colon
  GI50: 294 nM
  TGI: 1390 nM
T-47D breast
  GI50: 1400 nM
  TGI: 8830 nM
TK-10 renal
  GI50: 2130 nM
  TGI: 9490 nM
U251 CNS
  GI50: 1980 nM
  TGI: 6560 nM
UACC-257 melanoma
  GI50: 1720 nM
  TGI: 3850 nM
UACC-62 melanoma
  GI50: 1590 nM
  TGI: 3540 nM
UO-31 renal
  GI50: 1410 nM
  TGI: 4300 nM
